Measurements from patent publication US9725414B2, “Fungicidal N-bicycloalkyl and N-tricycloalkyl pyrazole-4-(thio)carboxamide derivatives” (priority 2011, dated 2017).

Assays:
Alternaria solani = test: Example C: in vivo preventive test on Alternaria solani (tomato); conditions: 500 ppm of active ingredient, evaluated 7 days after inoculation
Summary of the method: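 Young tomato plants sprayed preventively with compound formulated in DMF/emulsifier and diluted with water, then inoculated one day later with Alternaria solani spores. Plants were held one day at about 22° C, 100% humidity, then at about 20° C, 96% humidity.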

Pyrenophora teres [1] = test: Example E: in vivo preventive test on Pyrenophora teres (barley), DMF/emulsifier preparation; conditions: 500 ppm of active ingredient, evaluated 7-9 days after inoculation
Summary of the method: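 Young barley plants sprayed preventively with compound formulated in DMF/alkylaryl polyglycol ether emulsifier and diluted in water. One day later inoculated with aqueous Pyrenophora teres spore suspension, then held 48 h at 22 °C and 100% relative humidity.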

[2] = log P by HPLC on reversed-phase column (C 18), EEC Directive 79831 Annex V.A8; type: physicochemical; conditions: HPLC reversed-phase C 18, 40° C., 0.1% aqueous formic acid and acetonitrile gradient; several values = mixture of two or more isomers
Summary of the method: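 Reversed-phase C18 HPLC at 40° C, 0.1% aqueous formic acid/acetonitrile linear gradient 10% to 90% acetonitrile, per EEC Directive 79831 Annex V.A8. log P obtained from retention time by linear interpolation between unbranched alkan-2-ones (C3-C16) of known log P.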

Sphaerotheca fuliginea [3] = test: Example A: in vivo preventive test on Sphaerotheca fuliginea (cucumber); conditions: 500 ppm of active ingredient, evaluated 7 days after inoculation
Procedure: In Vivo Preventive Test on Sphaerotheca fuliginea (Cucumber) Solvent: 49 parts by weight of N,N-dimethylformamide Emulsifier: 1 part by weight of alkylarylpolyglycolether To produce a suitable preparation of active compound, 1 part by weight of active compound is mixed with the stated amounts of solvent and emulsifier, and the concentrate is diluted with water to the desired concentration. To test for preventive activity, young plants are sprayed with the preparation of active compound at the stated rate of application. One day after this treatment, the plants are inoculated with an aqueous spore suspension of Sphaerotheca fuliginea. Then the plants are placed in a greenhouse at approximately 23° C. and a relative atmospheric humidity of approximately 70%.

Botrytis cinerea [4] = test: Example P: in vivo preventive test on Botrytis cinerea (grey mould), gherkin plants; conditions: 500 ppm of active ingredient, grading 4 to 5 days after contamination
Procedure: In Vivo Preventive Test on Botrytis cinerea (Grey Mould) […] Gherkin plants (“Vert petit de Paris” variety), sown in starter cups on a 50/50 peat soil pozzolana substrate and grown at 24° C. are treated at the Z11 cotyledon stage by spraying with the active ingredient prepared as described above. Plants, used as controls, are treated with the mixture of acetone/tween/DMSO/water not containing the active material. After 24 hours, the plants are contaminated by spraying the cotyledons with an aqueous suspension of cryopreserved Botrytis cinerea spores (50 000 spores per mL). The spores are suspended in a nutrient solution composed of 10 g/L of PDB, 50 g/L of D-Fructose, 2 g/L of NH4NO3 and 1 g/L of KH2PO4. The contaminated gherkin plants are incubated at 17° C. and at 90% relative humidity. Grading (% of efficacy) is carried out 4 to 5 days after the contamination, in comparison with the control plants.

Uromyces appendiculatus = test: Example Q: in vivo preventive test on Uromyces appendiculatus (bean rust); conditions: Uromyces appendiculatus on bean plants, 500 ppm of active ingredient, grading 11 days after contamination
Procedure: In Vivo Preventive Test on Uromyces appendiculatus (Bean Rust) […] Bean plants (“Saxa” variety), sown in starter cups on a 50/50 peat soil pozzolana substrate and grown at 24° C., are treated at the 2 leaf stage (9 cm height) by spraying with the active ingredient prepared as described above. Plants, used as controls, are treated with the mixture of acetone/tween/DMSO/water not containing the active material. After 24 hours, the plants are contaminated by spraying the leaves with an aqueous suspension of Uromyces appendiculatus spores (150 000 spores per mL). The spores are collected from infected plants and are suspended in water containing 2.5 mL/L of Tween 80 at 10%. […] Grading (% of efficacy) is carried out 11 days after the contamination, in comparison with the control plants.

Septoria tritici [5] = test: Example I: in vivo preventive test on Septoria tritici (wheat), acetone/tween/DMSO preparation; conditions: 500 ppm of active ingredient, grading 24 days after contamination
Summary of the method: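 Scipion wheat grown at 22° C, sprayed at 1-leaf stage (10 cm); controls received acetone/tween/DMSO/water without active. Inoculated 24 h later with S. tritici spores (500 000/mL), held 72 h at 18° C, 100% RH, then 21 days at 90% RH. % efficacy vs controls scored 24 days post-inoculation.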

Pyrenophora teres [6] = test: Example F: in vivo preventive test on Pyrenophora teres (barley), acetone/tween/DMSO preparation; conditions: 500 ppm of active ingredient, barley, grading 14 days after contamination
Summary of the method: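 Barley ("Plaisant") grown at 22° C was sprayed at the 1-leaf stage (10 cm) with active ingredient in acetone/tween/DMSO/water, with solvent-only controls. After 24 h, leaves were inoculated with Pyrenophora teres spores (12 000 spores per mL) from 12-day cultures. % efficacy versus controls graded 14 days post-contamination.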

Sphaerotheca fuliginea [7] = test: Example B: in vivo preventive test on Sphaerotheca fuliginea (powdery mildew on cucurbits), gherkin plants; conditions: 500 ppm of active ingredient, grading 12 days after contamination
Summary of the method: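 Gherkin plants grown at 24 °C were sprayed with compound at the Z11 cotyledon stage; controls received acetone/tween/DMSO/water without active. 24 h later, cotyledons were inoculated by spraying with Sphaerotheca fuliginea spores (100 000 spores per mL).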

Alternaria brassicae = test: Example D: in vivo preventive test on Alternaria brassicae (leaf spot on radish); conditions: 500 ppm of active ingredient, grading 6 days after contamination
Procedure: In Vivo Preventive Test on Alternaria brassicae (Leaf Spot on Radish) […] Radish plants (“Pernod Clair” variety), sown in starter cups on a 50/50 peat soil pozzolana substrate and grown at 17° C., are treated at the cotyledon stage by spraying with the active ingredient prepared as described above. Plants, used as controls, are treated with the mixture of acetone/tween/DMSO/water not containing the active material. After 24 hours, the plants are contaminated by spraying the cotyledons with an aqueous suspension of Alternaria brassicae spores (50 000 spores per mL). The spores are collected from a 15-day-old culture. The contaminated radish plants are incubated at 20° C. and at 100% relative humidity. Grading (% of efficacy) is carried out 6 days after the contamination, in comparison with the control plants.

Puccinia recondita = test: Example M: in vivo preventive test on Puccinia recondita (brown rust on wheat); conditions: 500 ppm of active ingredient, grading 12 days after contamination
Summary of the method: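 Wheat (Scipion) sprayed with compound at 1-leaf stage, grown at 22° C. Inoculated 24 h later with a spore suspension at 100 000 spores per mL. Efficacy (%) graded 12 days after inoculation against solvent-treated controls.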

Venturia inaequalis = test: Example G: in vivo preventive test on Venturia inaequalis (apple scab); conditions: 100 ppm of active ingredient, evaluated 10 days after inoculation
Procedure: In Vivo Preventive Test on Venturia inaequalis (Apple Scab) Solvent: 24.5 parts by weight of acetone • 24.5 parts by weight of N,N-dimethylacetamide Emulsifier: 1 part by weight of alkylaryl polyglycol ether To produce a suitable preparation of active compound, 1 part by weight of active compound is mixed with the stated amounts of solvent and emulsifier, and the concentrate is diluted with water to the desired concentration. To test for preventive activity, young plants are sprayed with the preparation of active compound at the stated rate of application. After the spray coating has dried on, the plants are inoculated with an aqueous conidia suspension of the causal agent of apple scab (Venturia inaequalis) and then remain for 1 day in an incubation cabinet at approximately 20° C. and a relative atmospheric humidity of 100%. The plants are then placed in a greenhouse at approximately 21° C. and a relative atmospheric humidity of approximately 90%.

Botrytis cinerea [8] = test: Example O: in vivo protective test on Botrytis cinerea (beans); conditions: 100 ppm of active ingredient, lesion size 2 days after inoculation
Procedure: In Vivo Protective Test on Botrytis cinerea (Beans)
Solvent: 24.5 parts by weight of acetone • 24.5 parts by weight of N,N-dimethylacetamide
Emulsifier: 1 part by weight of alkylaryl polyglycol ether
To produce a suitable preparation of active compound, 1 part by weight of active compound is mixed with the stated amounts of solvent and emulsifier, and the concentrate is diluted with water to the desired concentration.
To test for preventive activity, young plants are sprayed with the preparation of active compound. After the spray coating has dried on, 2 small pieces of agar covered with growth of Botrytis cinerea are placed on each leaf. The inoculated plants are placed in a darkened chamber at 20° C. and a relative atmospheric humidity of 100%.
2 days after the inoculation, the size of the lesions on the leaves is evaluated. 0% means an efficacy which corresponds to that of the untreated control, while an efficacy of 100% means that no disease is observed.

Septoria tritici [9] = test: Example H: in vivo preventive test on Septoria tritici (wheat), N,N-dimethylacetamide/emulsifier preparation; conditions: 500 ppm of active ingredient, evaluated 21 days after inoculation
Procedure: (§1) In Vivo Preventive Test on Septoria tritici (Wheat) Solvent: 49 parts by weight of N,N-dimethylacetamide Emulsifier: 1 part by weight of alkylaryl polyglycol ether To produce a suitable preparation of active compound, 1 part by weight of active compound or active compound combination is mixed with the stated amounts of solvent and emulsifier, and the concentrate is diluted with water to the desired concentration. To test for preventive activity, young plants are sprayed with the preparation of active compound or active compound combination at the stated rate of application. After the spray coating has been dried, the plants are sprayed with a spore suspension of Septoria tritici. The plants remain for 48 hours in an incubation cabinet at approximately 20° C. and a relative atmospheric humidity of approximately 100% and afterwards for 60 hours at approximately 15° C. in a translucent incubation cabinet at a relative atmospheric humidity of approximately 100%.

Leptosphaeria nodorum = test: Example K: in vivo preventive test on Leptosphaeria nodorum (wheat); conditions: 500 ppm of active ingredient, evaluated 8 days after inoculation
Procedure: as §1, with “Leptosphaeria nodorum” for “Septoria tritici”, “Leptosphaeria nodorum.” for “Septoria tritici.”, “approximately” for “approximately 100% and afterwards for 60 hours at approximately 15° C. in a translucent incubation cabinet at a relative atmospheric humidity of approximately”

[10] = test system: Blumeria graminis f.sp. hordei; test: Example J: in vivo preventive test on Blumeria graminis (barley); conditions: 500 ppm of active ingredient, evaluated 7 days after inoculation
Procedure: In Vivo Preventive Test on Blumeria graminis (Barley) Solvent: 49 parts by weight of N,N-dimethylacetamide Emulsifier: 1 part by weight of alkylaryl polyglycol ether To produce a suitable preparation of active compound, 1 part by weight of active compound or active compound combination is mixed with the stated amounts of solvent and emulsifier, and the concentrate is diluted with water to the desired concentration. To test for preventive activity, young plants are sprayed with the preparation of active compound or active compound combination at the stated rate of application. After the spray coating has been dried, the plants are dusted with spores of Blumeria graminis f.sp. hordei.

| SMILES | logP [2] | Efficacy (Alternaria solani) [%] | Efficacy (Pyrenophora teres [1]) [%] | Efficacy (Sphaerotheca fuliginea [3]) [%] | other results |
| --- | --- | --- | --- | --- | --- |
| CC1C(CN(C(=O)c2c(C(F)F)nn(C)c2F)C2CC2)CC2CC1C2(C)C (centres unmarked) [Example 77] | 4.69 | 95 | 100 | 100 |  |
| Cn1nc(C(F)F)c(C(=O)N(CC2CCCC3CCCCC32)C2CC2)c1F (centres unmarked) [Example 65] | 4.90 |  |  |  | Efficacy (Botrytis cinerea [4]): 100%; Efficacy (Uromyces appendiculatus): 100%; Efficacy (Septoria tritici [5]): 100%; Efficacy (Pyrenophora teres [6]): 100%; Efficacy (Sphaerotheca fuliginea [7]): 100%; Efficacy (Alternaria brassicae): 100%; Efficacy (Puccinia recondita): 100% |
| Cn1nc(C(F)F)c(C(=O)NC2CCCC3CCCCC32)c1F (centres unmarked) [Example 25] | 3.60 | 100 | 95 | 88 | Efficacy (Uromyces appendiculatus): 80%; Efficacy (Septoria tritici [5]): 96%; Efficacy (Pyrenophora teres [6]): 86%; Efficacy (Sphaerotheca fuliginea [7]): 100%; Efficacy (Puccinia recondita): 100% |
| Cn1cc(C(=O)N(CC2CCCC3CCCCC32)C2CC2)c(C(F)F)n1 (centres unmarked) [Example 66] | 4.37 |  |  |  | Efficacy (Botrytis cinerea [4]): 99%; Efficacy (Uromyces appendiculatus): 88%; Efficacy (Septoria tritici [5]): 100%; Efficacy (Pyrenophora teres [6]): 100%; Efficacy (Sphaerotheca fuliginea [7]): 100%; Efficacy (Alternaria brassicae): 96%; Efficacy (Puccinia recondita): 94% |
| CC1CC(C)(C)C2CCCC(NC(=S)c3c(C(F)F)nn(C)c3F)C12 (mixture of isomers) [Example 18] |  | 80 | 95 | 83 |  |
| CCc1nn(C)c(F)c1C(=O)N(C1CC1)C(C)C1CC2CCC1C2 (mixture of isomers) [Example 95] |  | 100 | 100 | 95 |  |

The next lines start with results.

| logP [2] | SMILES | Efficacy (Alternaria solani) [%] | Efficacy (Pyrenophora teres [1]) [%] | Efficacy (Sphaerotheca fuliginea [3]) [%] | other results |
| --- | --- | --- | --- | --- | --- |
| 4.21 | CC1C(CN(C(=O)c2cn(C)nc2C(F)F)C2CC2)CC2CC1C2(C)C (centres unmarked) [Example 78] | 100 | 100 | 95 |  |
| 3.46 | Cc1nn(C)c(F)c1C(=O)N(C1CC1)C(C)C1CC2CCC1C2 (centres unmarked) [Example 96] | 100 | 100 | 95 |  |
| 4.47 | CC(C1CC2CCC1C2)N(C(=S)c1c(C(F)F)nn(C)c1F)C1CC1 (centres unmarked) [Example 97] | 95 | 100 | 100 | Efficacy (Venturia inaequalis): 98%; Efficacy (Botrytis cinerea [8]): 100% |
| 3.85 | Cn1nc(C(F)F)c(C(=O)NCC2CCC3CC2C3(C)C)c1Cl (centres unmarked) [Example 83] | 95 | 100 | 90 |  |
| 4.86 | CCc1nn(C)c(F)c1C(=O)N(C1CC1)C(C)C12CC3CC(CC(C3)C1)C2 (centres unmarked) [Example 104] | 95 | 95 | 96 | Efficacy (Septoria tritici [9]): 90%; Efficacy (Leptosphaeria nodorum): 83%; Efficacy [10]: 78% |
| 4.34 | Cc1nn(C)c(F)c1C(=S)N(C1CC1)C(C)C1CC2CCC1C2 (centres unmarked) [Example 98] | 95 | 100 | 93 |  |
| 4.82 | CC1C(CNC(=S)c2c(C(F)F)nn(C)c2F)CC2CC1C2(C)C (centres unmarked) [Example 82] | 90 | 95 | 93 |  |
